Data published in patent US6395749B1, “Carboxamide compounds, methods, and compositions for inhibiting PARP activity” (Guilford Pharmaceuticals Inc., priority 1998, dated 2002).

Tested on: C57/BL male mice
Experiment: Septic shock assay (LPS plus galactosamine challenge)
Format: in vivo, mouse
Conditions: 60, 20, 6 and 2 mg/kg daily IP for three days, first dose 30 minutes after challenge; dose of the result not stated
Description: Groups of 10 C57/BL male mice weighing 18 to 20 g were administered a test compound, 1-carboxynaphthalene-1-carboxamide at the doses of 60, 20, 6 and 2 mg/kg, daily, by intraperitoneal (IP) injection for three consecutive days. Each animal was first challenged with lipopolysaccharide (LPS, from E. Coli, LD100 of 20 mg/animal IV) plus galactosamine (20 mg/animal IV). The first dose of test compound in a suitable vehicle was given 30 minutes after challenge, and the second and third doses were given 24 hours later on day 2 and day 3 respectively, with only the surviving animals receiving the second or third dose of the test compound. Mortality was recorded every 12 hours after challenge for the three-day testing period. 1-Carboxy-naphthalene-1-carboxamide provided a protection against mortality from septic shock of about 40%.

SMILES: NC(=O)c1cccc2cccc(C(=O)O)c12 [1-Carboxy-naphthalene-1-carboxamide, 8-carboxynaphthalene-1-carboxamide]
- protection against mortality from septic shock: about 40%
